In the experiment the target is T1, human CRTH2 (Homo sapiens, UniProt Q9Y5Y4).
T1 construct: expressed in transfected cells
T1 sequence (Q9Y5Y4 1-395): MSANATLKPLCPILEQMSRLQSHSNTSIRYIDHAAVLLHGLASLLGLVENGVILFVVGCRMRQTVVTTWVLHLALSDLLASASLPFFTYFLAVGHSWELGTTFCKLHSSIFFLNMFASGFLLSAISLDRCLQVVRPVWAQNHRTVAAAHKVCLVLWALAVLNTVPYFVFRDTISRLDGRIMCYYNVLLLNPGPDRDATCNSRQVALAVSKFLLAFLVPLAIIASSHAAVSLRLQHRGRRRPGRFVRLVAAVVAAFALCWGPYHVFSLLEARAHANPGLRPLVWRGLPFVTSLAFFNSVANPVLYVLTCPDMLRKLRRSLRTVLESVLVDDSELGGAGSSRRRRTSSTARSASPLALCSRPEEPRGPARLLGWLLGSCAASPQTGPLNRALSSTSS
The experiment in a line: Human CRTH2 Receptor Binding Assay (whole cell, [3H]ramatroban competition). The following applies: CHO-K1 cells expressing human CRTH2 and G-alpha16; 20 nM [3H]ramatroban; 1 hour, room temperature. An excerpt: A whole cell receptor binding assay using [^3H]ramatroban as the competing radioactive ligand was employed to evaluate the compound binding activity to human CRTH2. The radioactive ligand [^3H]ramatroban was synthesized according to Sugimoto et. al. (Eur. J. Pharmacol. 524, 30-37, 2005) to a specific activity of 42 Ci/mmol.
A cell line stably expressing human CRTH2 was established by transfecting CHO-K1 cells with two mammalian expression vectors that harbored human CRTH2 and G-alpha16 cDNAs, respectively, using FuGene® 6 transfection reagent (from Roche). Stable clones expressing CRTH2 were selected by staining each clone with BM16 (BD Pharmingen™ from BD Biosciences, a division of Becton, Dickinson and Company), which is a rat monoclonal antibody to human CRTH2. The cells were maintained as monolayer cultures in Ham's F-12 medium containing 10% fetal bovine serum, 100 units/mL penicillin, […] streptomycin, 2 mM glutamine, 0.5 mg/mL G418 (geneticin) for CRTH2, and 0.2 mg/mL hygromycin-B (for G-alpha 16). For whole cell receptor binding assay, the monolayer cells were rinsed once with PBS (phosphate buffered saline), dissociated using diammonium ethylenediaminetetraacetate (Versene™ EDTA from the Dow Chemical Company), and suspended in PBS containing 10 mM MgCl2 and 0.06% BSA (bovine serum albumin) at 1.5×10^6 cells/mL.
The binding reactions (0.2 mL) were performed in 96-well plates at room temperature in PBS containing 1.5×10^5 cells, 10 mM MgCl2, 0.06% BSA, 20 nM [^3H]ramatroban, and test compound at various concentrations. After 1 hour of binding reactions, the cells were harvested on GF™/B filter microplates (microtiter plates with embedded glass fiber from PerkinElmer, Inc.) and washed 5 times with PBS using a Filtermate™ Harvester (a cell harvester that harvests and washes cells from microplates from PerkinElmer, Inc.). The radioactivities bound to the cells were determined using a microplate scintillation counter (TopCount® NXT, from PerkinElmer, Inc.) after adding 50 μL of Microscint™ 20 scintillation fluid (from PerkinElmer, Inc.) to each well of the filter plates. The radioactivity from non-specific binding was determined by replacing compound with 10 μM of 15(R)-15-methyl PGD2 (from Cayman Chemical Company) in the reaction mixtures. The radioactivity bound to the cells in the absence of compound (total binding) was determined by replacing compound with 0.25% of DMSO (dimethyl sulfoxide) in the reaction mixture. Specific binding data were obtained by subtracting the radioactivity of non-specific binding from each binding data.
The IC50 value is defined as the concentration of the tested compound that is required for 50% inhibition of total specific binding. In order to calculate the IC50 value, the percent inhibition data were determined for 7 concentrations for each compound. The percent inhibition for a compound at each concentration was calculated according to the following formula, [1-(specific binding in the presence of compound)/(total specific binding)]×100. The IC50 value was then obtained by fitting the percent inhibition data to a sigmoidal dose-response (4 parameter logistic) model in the XLfit® software Excel add-in program [from ID Business Solutions Ltd., model 205, where F(x)=(A+(B−A)/(1+((C/x)^D)))].

For 23 compounds, IC50 results are on record in patent US8263656B2 (Hoffmann-La Roche Inc., priority 2008, dated 2012).

Each structure is given as a SMILES string.

In general, IC50 refers to the point on the concentration scale where inhibition reaches its midpoint. A higher IC50 goes with weaker potency in that assay. `O=C(O)COc1c(F)c(F)cc2c1CCCC2NS(=O)(=O)c1cc(F)cc(C(F)(F)F)c1` (centres unmarked) [Example 1-26, [2,3-Difluoro-5-(3-fluoro-5-trifluoromethyl-benzenesulfonyl-amino)-5,6,7,8-tetrahydro-naphthalen-1-yloxy]-acetic acid] gave an IC50 of 42.2 nM.
For the compound `O=C(O)COc1cc(F)cc2c1CCCC2NS(=O)(=O)c1cc(F)cc(C(F)(F)F)c1` (centres unmarked) [Example 1-27, [3-Fluoro-5-(3-fluoro-5-trifluoromethyl-benzenesulfonyl-amino)-5,6,7,8-tetrahydro-naphthalen-1-yloxy]-acetic acid], the IC50 worked out at 40.1 nM.
Under `O=C(O)COc1cc(F)cc2c1CCCC2NS(=O)(=O)c1cc(Br)cc(C(F)(F)F)c1` (centres unmarked) [Example 1-28, [5-(3-Bromo-5-trifluoromethyl-benzenesulfonyl-amino)-3-fluoro-5,6,7,8-tetrahydro-naphthalen-1-yloxy]-acetic acid] stands 4.2 nM; under `O=C(O)COc1c(F)c(F)cc2c1CCCC2NS(=O)(=O)c1cc(Br)cc(C(F)(F)F)c1` (centres unmarked) [Example 1-29, [5-(3-Bromo-5-trifluoromethyl-benzenesulfonyl-amino)-2,3-difluoro-5,6,7,8-tetrahydro-naphthalen-1-yloxy]-acetic acid], 18.2 nM.
`O=C(O)COc1c(F)c(F)cc2c1CCCC2NS(=O)(=O)c1ccc(Cl)cc1Cl` (centres unmarked) [Example 1-30, [5-(2,4-Dichloro-benzenesulfonyl-amino)-2,3-difluoro-5,6,7,8-tetrahydro-naphthalen-1-yloxy]-acetic acid]: the IC50 was determined as 46.1 nM.
In turn, `O=C(O)COc1cc(F)cc2c1CCCC2NS(=O)(=O)c1ccc(Cl)cc1Cl` (centres unmarked) [Example 1-31, [5-(2,4-Dichloro-benzenesulfonyl-amino)-3-fluoro-5,6,7,8-tetrahydro-naphthalen-1-yloxy]-acetic acid] showed an IC50 of 154 nM.
With `O=C(O)COc1c(F)c(F)cc2c1CCCC2NS(=O)(=O)c1cc(Cl)ccc1Cl` (centres unmarked) [Example 1-32, [5-(2,5-Dichloro-benzenesulfonyl-amino)-2,3-difluoro-5,6,7,8-tetrahydro-naphthalen-1-yloxy]-acetic acid] the figure was 269 nM; with `O=C(O)COc1cc(F)cc2c1CCCC2NS(=O)(=O)c1cc(Cl)ccc1Cl` (centres unmarked) [Example 1-33, [5-(2,5-Dichloro-benzenesulfonyl-amino)-3-fluoro-5,6,7,8-tetrahydro-naphthalen-1-yloxy]-acetic acid], 81 nM.
Turning to `CC(C)c1cccc(-c2ccc(S(=O)(=O)NC3CCCc4c3cc(F)c(F)c4OCC(=O)O)nc2)c1` (centres unmarked) [Example 1-34, {2,3-Difluoro-5-[5-(3-isopropyl-phenyl)-pyridine-2-sulfonylamino]-5,6,7,8-tetrahydro-naphthalen-1-yloxy}-acetic acid], the IC50 came to 8.6 nM.
The compound `CC(C)c1cccc(-c2ccc(S(=O)(=O)NC3CCCc4c(OCC(=O)O)cc(F)cc43)nc2)c1` (centres unmarked) [Example 1-35, {3-Fluoro-5-[5-(3-isopropyl-phenyl)-pyridine-2-sulfonylamino]-5,6,7,8-tetrahydro-naphthalen-1-yloxy}-acetic acid] returned an IC50 of 7 nM.
Compound `CC(C)c1cccc(-c2ccc(S(=O)(=O)NC3CCCc4c(OCC(=O)O)cc(Cl)cc43)nc2)c1` (centres unmarked) [Example 1-36, {3-Chloro-5-[5-(3-isopropyl-phenyl)-pyridine-2-sulfonylamino]-5,6,7,8-tetrahydro-naphthalen-1-yloxy}-acetic acid] registered an IC50 of 4.5 nM.
As to `O=C(O)COc1cc(Br)cc2c1CCC[C@H]2NS(=O)(=O)c1cc(Br)cc(C(F)(F)F)c1` [Example 1-37, [(R)-3-Bromo-5-(3-bromo-5-trifluoromethyl-benzenesulfonyl-amino)-5,6,7,8-tetrahydro-naphthalen-1-yloxy]-acetic acid], the IC50 was found to be 2.8 nM.
Turning to `O=C(O)COc1c(F)c(Cl)cc2c1CCC[C@H]2NS(=O)(=O)c1cc(F)cc(C(F)(F)F)c1` [Example 1-38, [(R)-3-Chloro-2-fluoro-5-(3-fluoro-5-trifluoromethyl-benzenesulfonyl-amino)-5,6,7,8-tetrahydro-naphthalen-1-yloxy]-acetic acid], the IC50 is 3.4 nM.
For `O=C(O)COc1c(F)c(Cl)cc2c1CCC[C@H]2NS(=O)(=O)c1cc(Br)cc(C(F)(F)F)c1` [Example 1-39, [(R)-5-(3-Bromo-5-trifluoromethyl-benzenesulfonyl-amino)-3-chloro-2-fluoro-5,6,7,8-tetrahydro-naphthalen-1-yloxy]-acetic acid], the IC50 came out at 2.6 nM.
`O=C(O)COc1c(F)c(Cl)cc2c1CCC[C@H]2NS(=O)(=O)c1ccc(Cl)cc1Cl` [Example 1-40, [(R)-3-Chloro-5-(2,4-dichloro-benzenesulfonyl-amino)-2-fluoro-5,6,7,8-tetrahydro-naphthalen-1-yloxy]-acetic acid] gave an IC50 of 6.3 nM.
`O=C(O)COc1cc(Cl)cc2c1CCC[C@H]2NS(=O)(=O)c1cc(F)cc(C(F)(F)F)c1` [Example 1-41, [(R)-3-Chloro-5-(3-fluoro-5-trifluoromethyl-benzenesulfonyl-amino)-5,6,7,8-tetrahydro-naphthalen-1-yloxy]-acetic acid] returned an IC50 of 3.4 nM.
`O=C(O)COc1cc(Cl)cc2c1CCC[C@H]2NS(=O)(=O)c1cc(Br)cc(C(F)(F)F)c1` [Example 1-42, [(R)-5-(3-Bromo-5-trifluoromethyl-benzenesulfonyl-amino)-3-chloro-5,6,7,8-tetrahydro-naphthalen-1-yloxy]-acetic acid] yielded an IC50 of 3.2 nM.
As to `O=C(O)COc1cc(Cl)cc2c1CCC[C@H]2NS(=O)(=O)c1cc(Cl)ccc1Cl` [Example 1-43, [(R)-3-Chloro-5-(2,5-dichloro-benzenesulfonyl-amino)-5,6,7,8-tetrahydro-naphthalen-1-yloxy]-acetic acid], the IC50 amounted to 10.9 nM.
As to `CC(C)c1cccc(-c2ccc(S(=O)(=O)NC3CCCc4c3cc(Cl)c(F)c4OCC(=O)O)nc2)c1` (centres unmarked) [Example 1-44, {3-Chloro-2-fluoro-5-[5-(3-isopropyl-phenyl)-pyridine-2-sulfonylamino]-5,6,7,8-tetrahydro-naphthalen-1-yloxy}-acetic acid], the IC50 was 16.4 nM.
For `CN(C1CCCc2c1cc(Cl)c(F)c2OCC(=O)O)S(=O)(=O)c1cc(C(F)(F)F)cc(C(F)(F)F)c1` (centres unmarked) [Example 2-1, {5-[(3,5-Bis-trifluoromethyl-benzenesulfonyl)-methyl-amino]-3-chloro-2-fluoro-5,6,7,8-tetrahydro-naphthalen-1-yloxy}-acetic acid], the IC50 came to 8 nM.
`CN(C1CCCc2c(OCC(=O)O)cc(Cl)cc21)S(=O)(=O)c1cc(C(F)(F)F)cc(C(F)(F)F)c1` (centres unmarked) [Example 2-4, {5-[(3,5-Bis-trifluoromethyl-benzenesulfonyl)-methyl-amino]-3-chloro-5,6,7,8-tetrahydro-naphthalen-1-yloxy}-acetic acid]: the IC50 amounted to 8.3 nM.
`CN([C@@H]1CCCc2c(OCC(=O)O)cc(Cl)cc21)S(=O)(=O)c1cc(C(F)(F)F)cc(C(F)(F)F)c1` [Example 2-5, {(R)-5-[(3,5-Bis-trifluoromethyl-benzenesulfonyl)-methyl-amino]-3-chloro-5,6,7,8-tetrahydro-naphthalen-1-yloxy}-acetic acid] yielded an IC50 of 5.9 nM.
With `CN(C1CCCc2c(OCC(=O)O)cc(Cl)cc21)S(=O)(=O)c1ccc(Cl)cc1Cl` (centres unmarked) [Example 2-6, {3-Chloro-5-[(2,4-dichloro-benzenesulfonyl)-methyl-amino]-5,6,7,8-tetrahydro-naphthalen-1-yloxy}-acetic acid] the figure was 92.9 nM.
